Results: ChEMBL document CHEMBL2311395, “One pot solvent free synthesis and in vitro antitubercular screening of 3-Aracylphthalides against Mycobacterium tuberculosis” (Bioorg Med Chem Lett, 2013)
Converted amounts (≈) assume the structure as drawn.

Tested on: Mycobacterium tuberculosis
Experiment: Antitubercular activity against Mycobacterium tuberculosis H37Ra ATCC 25177 assessed as growth inhibition after 8 days by XTT reduction menadione assay
Assay type: functional, organism-based
Conditions: H37Ra ATCC 25177, 192 h

| Structure (SMILES) | IC50 [µg/mL] | IC90 [µg/mL] |
| --- | --- | --- |
| O=C(CC1OC(=O)c2ccccc21)c1ccco1 (centres undefined) | 0.81 (≈ 3.34 µM) |  |
| O=C(CC1OC(=O)c2ccccc21)c1cccs1 (centres undefined) | 1.24 (≈ 4.8 µM) |  |
| O=C(CC1OC(=O)c2ccccc21)c1ccc(Cl)cc1 (centres undefined) | 0.97 (≈ 3.38 µM) |  |
| NNC(=O)c1ccncc1 [ISONIAZID] |  | 0.125 (≈ 0.911 µM) |
